Reference: article PMC8916034, “Abubidentin A, New Oleanane-type Triterpene Ester from Abutilon bidentatum and its antioxidant, cholinesterase and antimicrobial activities” (PeerJ, 2022)
In brackets after ≈: the same amount, converted by molar mass. Several values for one entry are separate records, joined by “and”; a condition that tells them apart may be missing. Equal entries are not always repeated. Where two headings read alike, the source gives them in different places.

How the values were obtained:
[1] = ABTS radical cation decolorization assay; settings: for AA (mg/gm) Avg (ABTS+ activity) / AA (mg/gm) (ABTS+ activity), single trial: Conc. 20 µg/mL; for AA (mg/gm) Avg (ABTS+ activity): average of trials A-C; for AA (mg/gm) (ABTS+ activity), single trial: single trials A, B, C; for ABTS^+ IC50: mean ± SD, triplicate, 30 min, 734 nm
Procedure: ABTS radical cation decolorization assay was performed to measure the total antioxidant activity of the samples by obeying the previously described method ([Re et al., 1999]). In brief, ABTS^•+ radicals were generated by treating 7 mM ABTS^+ aqueous solution with 2.4 mM potassium persulfate for 12-16 h at room temperature in the dark. Prior to use, this solution was diluted with ethanol (approx. 1:89 v/v) and equilibrated to […] absorbance at 734 nm to obtain the working solution. Afterward, a 1.0 mL of working solution was reacted with 20 µL (1 mg mL^−1) samples and incubated for 30 min. After incubation, samples were scanned at 734 nm absorbance wavelength and the percentage of inhibition was determined. Ascorbic acid (AA) was applied reference standard.

[2] = DPPH radical scavenging activity; settings: for AA (mg/gm) Avg (DPPH activity) / AA (mg/gm) (DPPH activity), single trial: Conc 20 µg/mL; for AA (mg/gm) Avg (DPPH activity): average of trials A-C; for AA (mg/gm) (DPPH activity), single trial: single trials A, B, C; for DPPH IC50: mean ± SD, triplicate, 30 min, 517 nm
Procedure: The ability of the samples to scavenge DPPH radical was determined by [Wang, Chen & Hou (2019)] method with slight modification ([Wang, Chen & Hou, 2019]). […] Samples were incubated at ambient temperature under dark conditions for 30 min and the absorbance wavelength was measured at 517 nm against a blank sample. DPPH^• solution and ascorbic acid were used as blank samples and positive control, respectively.
where Ab and As are the absorbance values of the blank and test samples, respectively.

[3] = tested on: Escherichia coli (ATCC 25922); test: MIC, broth microdilution with resazurin; format: cell-based; settings: 24 h at 37 °C; for MIC: Escherichia coli, ATCC25922, 24 h
Procedure: (§1) The acetylcholinesterase (AChE) and butyrylcholinesterase (BChE) were obtained from the mouse brain and human blood at the Pharmacology Department of King Saud University, SaudiArabia. Escherichia coli (ATCC 25922), Pseudomonas aeruginosa (ATCC 27853), and Staphylococcus aureus were provided by Microbiology Department, King Khaled University Hospital (KKUH), Saudi Arabia.
(§2) Minimum inhibitory concentration (MIC) assay was performed to evaluate the in vitro antimicrobial activities using a broth microdilution method ([Nascente, 2009]). Three bacterial strains Escherichia coli (ATCC 25922), Pseudomonas aeruginosa (ATCC 27853), and Staphylococcus aureus were applied to examine the antimicrobial activity of samples. Briefly, the microbial strains were transferred to Muller Hinton agar (MHB, HiMedia, India) and 24-h colonies were individually suspended in 10 mL Muller Hinton broth (MHB, HiMedia, India). The suspension of each microbial strain was standardized at 575 nm wavelength using a spectrophotometer (CRAIC Technologies, CA, USA), to match the McFarland scale (1.5 × 10^8 CFU mL^−1). The standardized suspension was further diluted to obtain a final concentration of 5 × 10^5 CFU mL^−1. The samples prepared in DMSO at 1 mgmL^−1 and different concentrations (30–500 µgmL^−1) were attained after dilution in Mueller Hinton broth. Three inoculated wells containing different concentrations of DMSO (4% to 1% range), one non-inoculated well without an antimicrobial agent and negative controls were included. The inoculated well was used to monitor whether the broth was sufficient for the microbial strain to grow. Chloramphenicol ([…]) was applied as a positive control. The sample treated 96-well microplates were sealed and incubated for 24 h at 37 °C After a 1-day incubation, […] of 0.02% resazurin solution was added into each well to examine the viability of the microbial strain ([Palomino et al., 2002]). The minimum used concentration of test sample that inhibited the microorganism growth (MIC value) was calculated as the minimum concentration of the test samples required to prevent the color change of the resazurin solution. All the assays were performed in triplicates.

Staphylococcus aureus = test: MIC, broth microdilution with resazurin; format: cell-based; settings: 24 h at 37 °C; for MIC: Staphylococcus aureus, 24 h
Procedure: as §1, §2

[4] = tested on: Pseudomonas aeruginosa (ATCC 27853); test: MIC, broth microdilution with resazurin; format: cell-based; settings: 24 h at 37 °C; for MIC: Pseudomonas aeruginosa, ATCC27853, 24 h
Procedure: as §1, §2

[5] = target: T1, butyrylcholinesterase (BChE) (Homo sapiens, UniProt P06276); test: biochemical; settings: for Gal (mg/gm) Avg (BChE inhibitory activity) / Abs (BChE inhibitory activity) / Gal (mg/gm) (BChE inhibitory activity), single trial: Conc 10 µg/mL; for Gal (mg/gm) Avg (BChE inhibitory activity): average of trials A-C; for Abs (BChE inhibitory activity) / Gal (mg/gm) (BChE inhibitory activity), single trial: single trials A, B, C;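 for Abs (BChE inhibitory activity): absorbance read at 405 nm against blank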
T1 construct: Crude enzymes, AChE (acetylcholinesterase) and BChE (butyrylcholinesterase) were collected from brain of mice and blood of humans, respectively; from tissue; host or cells: human blood
T1 sequence (P06276 29-602): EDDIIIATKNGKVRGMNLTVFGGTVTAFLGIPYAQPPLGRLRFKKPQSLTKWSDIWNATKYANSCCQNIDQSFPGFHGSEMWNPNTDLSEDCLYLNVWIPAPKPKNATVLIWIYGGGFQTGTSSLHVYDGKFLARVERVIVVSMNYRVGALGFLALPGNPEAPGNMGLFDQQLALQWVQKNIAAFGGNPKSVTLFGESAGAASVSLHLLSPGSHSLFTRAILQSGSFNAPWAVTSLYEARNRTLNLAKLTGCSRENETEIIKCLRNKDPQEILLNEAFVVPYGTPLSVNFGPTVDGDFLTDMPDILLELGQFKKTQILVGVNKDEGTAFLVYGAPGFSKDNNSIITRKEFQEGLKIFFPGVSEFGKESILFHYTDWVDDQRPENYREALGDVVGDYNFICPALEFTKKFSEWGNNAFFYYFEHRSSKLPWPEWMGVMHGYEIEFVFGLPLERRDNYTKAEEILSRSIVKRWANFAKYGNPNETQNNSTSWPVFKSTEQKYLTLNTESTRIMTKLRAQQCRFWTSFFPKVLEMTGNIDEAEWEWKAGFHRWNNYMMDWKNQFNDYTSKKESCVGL
Procedure: (§3) The acetylcholinesterase (AChE) and butyrylcholinesterase (BChE) were obtained from the mouse brain and human blood at the Pharmacology Department of King Saud University, SaudiArabia.
(§4) The AChE and BChE assays were tested by using two chemical substrates acetylthiocholine iodide and S-butyrylthiochoilne iodide, respectively. […] Afterwards, […] (1 mM, 62 µL), sodium phosphate buffer (50 mM, 25 µL, pH 8) provided with bovine albumin serum (0.1%) and […] (0.5 mm, 13 µL) were added separately into each reaction mixture. […] All the experiments were performed in triplicates to avoid error and the results were estimated through the two-tailed Student’s t-test at a p < 0.05 significance. The inhibition percentage of cholinesterase activity was calculated using the following equation I%=AC−As/AC×100
(§5) where Ac and As is the absorbance of control and sample or reference compound. IC50 values could be determined from the dose response curve obtained by plotting the percent inhibition values against test concentrations of each compound.

[6] = target: T2, acetylcholinesterase (AChE) (Mus musculus, UniProt P21836); test: biochemical; settings: for Donep (mg/gm) Avg (AChE inhibitory activity) / Abs (AChE inhibitory activity) / Donep (mg/gm) (AChE inhibitory activity), single trial: Conc 10 µg/mL; for Donep (mg/gm) Avg (AChE inhibitory activity): average of trials A-C; for Abs (AChE inhibitory activity) / Donep (mg/gm) (AChE inhibitory activity), single trial: single trials A, B, C
T2 construct: Crude enzymes, AChE (acetylcholinesterase) and BChE (butyrylcholinesterase) were collected from brain of mice and blood of humans, respectively; from tissue; host or cells: mouse brain
T2 sequence (P21836 32-614): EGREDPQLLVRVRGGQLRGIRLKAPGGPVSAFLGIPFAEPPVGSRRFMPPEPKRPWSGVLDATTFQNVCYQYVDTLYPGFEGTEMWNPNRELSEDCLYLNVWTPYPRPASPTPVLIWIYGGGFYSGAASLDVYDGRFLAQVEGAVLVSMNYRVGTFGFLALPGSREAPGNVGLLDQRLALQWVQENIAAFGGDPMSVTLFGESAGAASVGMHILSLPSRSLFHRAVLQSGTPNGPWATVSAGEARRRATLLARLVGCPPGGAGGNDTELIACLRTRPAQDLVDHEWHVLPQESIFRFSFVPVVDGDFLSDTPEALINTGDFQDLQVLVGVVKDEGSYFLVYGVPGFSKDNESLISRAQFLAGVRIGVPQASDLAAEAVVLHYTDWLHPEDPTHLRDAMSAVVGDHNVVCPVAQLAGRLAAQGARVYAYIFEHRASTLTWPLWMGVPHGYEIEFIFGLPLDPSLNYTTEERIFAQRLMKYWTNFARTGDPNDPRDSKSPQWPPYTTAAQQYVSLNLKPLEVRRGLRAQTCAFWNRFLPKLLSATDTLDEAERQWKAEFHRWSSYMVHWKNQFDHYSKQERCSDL
Procedure: as §3, §4, §5

[7] = E. coli, read-out: Minimum inhibitory concentration
[8] = S. aureus, read-out: Minimum inhibitory concentration
[9] = P. aeruginosa, read-out: Minimum inhibitory concentration
[10] = crude enzyme from human blood, mean ± SD, triplicate, read-out: BChE IC50 (converted)
[11] = crude enzyme from mouse brain, mean ± SD, triplicate, read-out: AChE IC50 (converted)

Compound | AA (mg/gm) Avg (ABTS+ activity) [1] [mg/gm] | AA (mg/gm) (ABTS+ activity), single trial [1] | ABTS^+ IC50 [1] | AA (mg/gm) Avg (DPPH activity) [2] [mg/gm] | AA (mg/gm) (DPPH activity), single trial [2] | DPPH IC50 [2] | MIC [3, 7] [µg/mL] | MIC (Staphylococcus aureus; [8]) [µg/mL] | MIC [4, 9] [µg/mL] | Gal (mg/gm) Avg (BChE inhibitory activity) [5] [mg/gm] | Abs (BChE inhibitory activity) [5] | Gal (mg/gm) (BChE inhibitory activity), single trial [5] | IC50 [5, 10] [µM] | Donep (mg/gm) Avg (AChE inhibitory activity) [6] [mg/gm] | Abs (AChE inhibitory activity) [6] | Donep (mg/gm) (AChE inhibitory activity), single trial [6] | IC50 [6, 11] [µM] | Minimum inhibitory concentration ([3]; E. coli) [µg/mL] | Minimum inhibitory concentration (Staphylococcus aureus; S. aureus) [µg/mL] | Minimum inhibitory concentration ([4]; P. aeruginosa) [µg/mL] | further results
O=C1O[C@H]([C@@H](O)CO)C(O)=C1O [Ascorbic acid, ascorbic acid, reference compound] | 4.45 | 4.52 mg/gm and 4.25 mg/gm and 4.58 mg/gm | 4.45 ± 0.17^a µgmL^−1 | 3.12 | 3.30 mg/gm and 2.84 mg/gm and 3.22 mg/gm | 3.12 ± 0.24^a µgmL^−1 | – | – | – | – | – | – | – | – | – | – | – | – | – | – | –
O=C(N[C@H](CO)[C@H](O)c1ccc([N+](=O)[O-])cc1)C(Cl)Cl [Chloramphenicol, reference compound] | – | – | – | – | – | – | ≤ 40 | ≤ 40 | ≤ 40 | – | – | – | – | – | – | – | – | – | – | – | –
CCCCCCCCCCCCCCCCCCCCC(O)C(=O)O (stereo not drawn) [Compound 1, 2-hydroxydocosanoic acid] | 11.45 | 11.64 mg/gm and 11.02 mg/gm and 11.70 mg/gm | 11.45 ± 0.37^d µgmL^−1 | 10.82 | 10.98 mg/gm and 10.54 mg/gm and 10.96 mg/gm | 10.82 ± 0.24^d µgmL^−1 | ≤ 500 | ≤ 1000 | ≤ 1000 | 137.76 | 0.375 and 0.379 and 0.354 | 138.12 mg/gm and 136.98 mg/gm and 138.18 mg/gm | 386 | 121.97 | 0.342 and 0.328 and 0.345 | 122.89 mg/gm and 120.10 mg/gm and 122.92 mg/gm | 342 | – | – | – | –
CC[C@@H](/C=C/[C@@H](C)C1CCC2C3CCC4C[C@@H](O)CC[C@]4(C)C3CC[C@@]21C)C(C)C (stereo partly drawn) [Compound 2, stigmasta-22-ene-3-β-ol] | 8.18 | 8.25 mg/gm and 8.02 mg/gm and 8.28 mg/gm | 8.18 ± 0.13^c µgmL^−1 | 7.60 | 7.84 mg/gm and 7.12 mg/gm and 7.86 mg/gm | 7.60 ± 0.42^c µgmL^−1 | – | – | – | 49.52 | 0.355 and 0.365 and 0.358 | 49.70 mg/gm and 49.12 mg/gm and 49.74 mg/gm | – | 68.65 | 0.312 and 0.315 and 0.317 | 68.94 mg/gm and 68.01 mg/gm and 69.02 mg/gm | – | ≤125 | ≤150 | ≤250 | MIC ([3]; read-out: Minimum inhibitory concentration, E. coli): ≤ 125 µg/mL; MIC (Staphylococcus aureus; read-out: Minimum inhibitory concentration, S. aureus): ≤ 150 µg/mL; MIC ([4]; read-out: Minimum inhibitory concentration, P. aeruginosa): ≤ 250 µg/mL; IC50 [5]: 119 µM; IC50 [6]: 166 µM
CCCCCCCCCCCCCCCCCCCCCCCCCCCCCCCC(=O)O[C@H]1C[C@H](O)[C@]2(C)C3=CC=C4[C@@H]5CC(CO)(C(=O)O)CC[C@]5(C)CC[C@@]4(C)[C@]3(C)CCC2C1(C)C (stereo partly drawn) [Compound 3, 1α,3β,30-Trihydroxy-29-carboxy-olean-9(11), 12-diene-3-dotriacontanoate] | 6.42 | 6.56 mg/gm and 6.13 mg/gm and 6.58 mg/gm | 6.42 ± 0.25^b µgmL^−1 | 4.67 | 4.89 mg/gm and 4.35 mg/gm and 4.78 mg/gm | 4.67 ± 0.28^b µgmL^−1 | 125 to 150 (≈ 132 to 158 µM) | 125 to 150 (≈ 132 to 158 µM) | 125 to 150 (≈ 132 to 158 µM) | 32.68 | 0.285 and 0.286 and 0.287 | 32.88 mg/gm and 32.25 mg/gm and 32.92 mg/gm | 34.4 | 38.13 | 0.289 and 0.294 and 0.315 | 38.16 mg/gm and 38.05 mg/gm and 38.20 mg/gm | 40.2 | ≤150 | ≤125 | ≤125 | Minimum inhibitory concentration ([3]; E. coli, listed as compound 3): ≤ 150 µg/mL; Minimum inhibitory concentration (Staphylococcus aureus; S. aureus, listed as compound 3): ≤ 125 µg/mL; Minimum inhibitory concentration ([4]; P. aeruginosa, listed as compound 3): ≤ 125 µg/mL
COc1ccc2c3c1O[C@H]1C[C@@H](O)C=C[C@@]31CCN(C)C2 [Galantamine, reference compound] | – | – | – | – | – | – | – | – | – | 10.27 | 0.345 and 0.348 and 0.352 | 10.78 mg/gm and 9.29 mg/gm and 10.80 mg/gm | – | – | – | – | – | – | – | – | –
